Starred links: 1 amine or outer side, 2 acyl side, 3 side chain; linkers in the order of their positions; H or OH if unused. Non-standard residues stand in square brackets, D forms with d. Residues, ends and D or L forms follow the SMILES beside them. *: point of attachment. DOTA = O=C(O)CN1CCN(CC(=O)O)CCN(CC(=O)*)CCN(CC(=O)O)CC1; X1 = C[C@@H](C(=O)[*:2])n1cc([C@@H](CCC(=O)O)N[*:1])nn1; X2 = O=C(Cn1cc([C@H](Cc2ccc(O)cc2)N[*:1])nn1)[*:2]; Nle = CCCC[C@H](N)C(=O)O
Legend:
[1] = test system: A431-CCK2R cells xenografts; experiment: SPECT/CT imaging of mice with tumor xenografts; assay type: in vivo, female CD1-nu mice; settings: 24 h p.i.
Method: 10–14 days prior to the experiment, 6-week-old female CD1-nu mice were inoculated with 5 × 10^6 A431-CCK2R cells (0.1 mL, 5 × 10^7 cells/mL in PBS) subcutaneously in both shoulders. The mice were randomly assigned to groups of two animals. On the day of the experiment, ^177Lu-labeled conjugates (200 pmol, 100 µL, 2 µM in PBS, 20 MBq, 20 µg/kg) were injected via the tail vein. The mice were kept with food and water ad libitum. SPECT scans of 40 min (1 and 4 h p.i., frame duration 60 sec) or 60 min (24 h p.i., frame duration 80 sec) were acquired after an initial CT scan of 7.5 min (CT tube voltage 55 kV, CT tube current 145 µA) with a multi-pinhole NanoSPECT/CTplus (Bioscan Inc., […], and Mediso, Hungary). For the duration of the SPECT/CT scans, mice were kept under anesthesia with a mixture of isoflurane (1.5–2.5%) and oxygen and warmed by a constant air flow of 37 °C. The images were reconstructed with HiSPECT and analyzed in VivoQuant. A post-reconstruction filter was applied (Gauss, full width at half max, 1 mm) to the SPECT images, and the scale was adjusted to visualize important organs and tissues (0.001–0.004 kBq/voxel). n = 2 animals per group.

A431-CCK2R cells = experiment: cell binding and internalization; assay type: cell-based; settings: for internalized blocked / membrane-bound blocked: 6000-fold excess of minigastrin; for internalized specific / membrane-bound specific: total minus blocked
Description: (§1) Procedures for (radio)metal labeling of the DOTA–minigastrin conjugates with ^177Lu^3+ and ^natLu^3+, cell culturing of A431-CCK2R cells, cell internalization (including blocking experiments with excess minigastrin (H-LE5AYGWMDF-NH2)), competition binding assays (IC50), stability measurements in human blood plasma, and determinations of logDpH 7.4 have been reported previously for the in vitro evaluation of TZMGs and were applied to NMGs without alteration.
(§2) Figure 2 (A) Total internalization of ^177Lu-labeled conjugates (2 nM, 5 kBq) in […] cells over 4 h (n = 3–4 in triplicate). […] Data points show mean value ± standard deviation.
Cell Internalization Data
Cell internalization was determined and analyzed as described in Grob, et al., J Med Chem, 2020.1 Specific values result from values of total internalization or cell binding minus values obtained in presence of a 6000-fold excess of minigas- […]
Incubation time membrane-bound internalized total blocked specific total blocked specific
Table S3: Complete Internalization Data for 177Lu-labeled NMG 1 as mean ± standard deviation from n = 3–4 in triplicates.
Table S4: Complete Internalization Data for 177Lu-labeled NMG 2 as mean ± standard deviation from n = 3–4 in triplicates.
Table S5: Complete Internalization Data for 177Lu-labeled NMG 3 as mean ± standard deviation from n = 3–4 in triplicates.

CCK2R = target: T1, CCK2R (Homo sapiens, UniProt P32239); experiment: competition binding assay (receptor displacement of 177Lu-PP-F11N); settings: read-out: IC50 (95% CI); 175Lu-labeled; displacement of 177Lu-PP-F11N (2 nM) on A431-CCK2R cells
T1 construct: expressed in transfected cells; host or cells: A431-CCK2R cells
T1 sequence (P32239 1-447): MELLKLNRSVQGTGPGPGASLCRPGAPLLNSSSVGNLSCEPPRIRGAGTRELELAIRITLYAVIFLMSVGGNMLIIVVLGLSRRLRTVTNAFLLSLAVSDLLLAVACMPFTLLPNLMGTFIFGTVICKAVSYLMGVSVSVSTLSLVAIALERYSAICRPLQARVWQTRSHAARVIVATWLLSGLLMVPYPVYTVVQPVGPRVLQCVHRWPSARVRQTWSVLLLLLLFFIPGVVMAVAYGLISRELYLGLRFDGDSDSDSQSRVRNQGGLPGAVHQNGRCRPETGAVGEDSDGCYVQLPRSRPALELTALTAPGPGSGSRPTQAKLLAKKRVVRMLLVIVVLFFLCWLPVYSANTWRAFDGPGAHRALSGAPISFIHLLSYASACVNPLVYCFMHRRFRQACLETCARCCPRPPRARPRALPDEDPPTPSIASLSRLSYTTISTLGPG
Description: as §1, §2

IC50 (CCK2R): 2 nM
Compound: CCCC[C@H](NC(=O)[C@H](Cc1c[nH]c2ccccc12)NC(=O)Cn1cc([C@H](Cc2ccc(O)cc2)NC(=O)[C@H](C)n2cc([C@@H](CCC(=O)O)NC(=O)[C@@H](CCC(=O)O)NC(=O)[C@@H](CCC(=O)O)NC(=O)[C@@H](CCC(=O)O)NC(=O)[C@@H](CCC(=O)O)NC(=O)[C@@H](CCC(=O)O)NC(=O)CN3CCN(CC(=O)O)CCN(CC(=O)O)CCN(CC(=O)O)CC3)nn2)nn1)C(=O)N[C@@H](CC(=O)O)C(=O)N[C@@H](Cc1ccccc1)C(N)=O [NMG 3, DOTA-(DGlu)6 -Ψ[Tz]-Ala-Tyr-Ψ[Tz]-Gly-Trp-Nle-Asp-Phe-NH2] ({DOTA}-[dE][dE][dE][dE][dE][X1][X2]W[Nle]DF-NH2)
visualization of tumor xenografts by SPECT/CT [1]: clearly visualized
internalized total (A431-CCK2R cells; 0.5 h): 33.9 ± 1.1%
membrane-bound total (A431-CCK2R cells; 0.5 h): 7.7 ± 0.8%
internalized blocked (A431-CCK2R cells; 0.5 h): 0.4 ± 0.3%
membrane-bound blocked (A431-CCK2R cells; 0.5 h): 0.9 ± 0.3%
internalized specific (A431-CCK2R cells; 0.5 h): 33.5 ± 1.1%
membrane-bound specific (A431-CCK2R cells; 0.5 h): 6.8 ± 1.0%
internalized total (A431-CCK2R cells; 1 h): 57.2 ± 2.3%
membrane-bound total (A431-CCK2R cells; 1 h): 6.4 ± 0.3%
internalized blocked (A431-CCK2R cells; 1 h): 0.7 ± 0.3%
membrane-bound blocked (A431-CCK2R cells; 1 h): 0.9 ± 0.3%
internalized specific (A431-CCK2R cells; 1 h): 56.5 ± 2.1%
membrane-bound specific (A431-CCK2R cells; 1 h): 5.5 ± 0.4%
internalized total (A431-CCK2R cells; 2 h): 73.4 ± 1.3%
membrane-bound total (A431-CCK2R cells; 2 h): 4.0 ± 0.6%
internalized blocked (A431-CCK2R cells; 2 h): 5.5 ± 3.9%
membrane-bound blocked (A431-CCK2R cells; 2 h): 1.8 ± 1.3%
internalized specific (A431-CCK2R cells; 2 h): 67.9 ± 3.4%
membrane-bound specific (A431-CCK2R cells; 2 h): 2.2 ± 1.3%
membrane-bound total (A431-CCK2R cells; 4 h): 3.2 ± 0.3%
internalized blocked (A431-CCK2R cells; 4 h): 18.4 ± 4.3%
membrane-bound blocked (A431-CCK2R cells; 4 h): 2.4 ± 0.6%
internalized specific (A431-CCK2R cells; 4 h): 57.7 ± 4.2%
membrane-bound specific (A431-CCK2R cells; 4 h): 0.8 ± 0.6%
cell-associated radioactivity (A431-CCK2R cells; after 4 h of incubation): ~80%
